Numbers after ± are expanded uncertainties.
Settings: Gas

O [water]
Settings	viscosity [mPa·s]
297.39 K, Mass density=0.0402 kg/m3	0.009665 ± 9.5e-05
297.88 K, Mass density=0.0668 kg/m3	0.009654 ± 9.5e-05
298.02 K, Mass density=0.0247 kg/m3	0.009675 ± 9.5e-05
298.08 K, Mass density=0.0368 kg/m3	0.009683 ± 9.5e-05
298.17 K, Mass density=0.1654 kg/m3	0.009693 ± 9.5e-05
298.3 K, Mass density=0.0186 kg/m3	0.0097 ± 9.5e-05
298.38 K, Mass density=0.1081 kg/m3	0.009686 ± 9.5e-05
298.57 K, Mass density=0.1973 kg/m3	0.009684 ± 9.5e-05
299.06 K, Mass density=0.0793 kg/m3	0.009709 ± 9.5e-05
300.07 K, Mass density=0.2351 kg/m3	0.009725 ± 9.5e-05
310.8 K, Mass density=0.0186 kg/m3	0.01013 ± 9.8e-05
310.87 K, Mass density=0.0368 kg/m3	0.01013 ± 9.8e-05
310.96 K, Mass density=0.0668 kg/m3	0.01011 ± 9.8e-05
311.24 K, Mass density=0.1654 kg/m3	0.01014 ± 9.8e-05
311.3 K, Mass density=0.0793 kg/m3	0.01013 ± 9.8e-05
311.39 K, Mass density=0.1081 kg/m3	0.01013 ± 9.8e-05
311.45 K, Mass density=0.0402 kg/m3	0.01015 ± 9.8e-05
311.77 K, Mass density=0.0247 kg/m3	0.01015 ± 9.8e-05
312.25 K, Mass density=0.2351 kg/m3	0.01014 ± 9.8e-05
313.01 K, Mass density=0.1973 kg/m3	0.01017 ± 9.8e-05
324.45 K, Mass density=0.0668 kg/m3	0.01059 ± 0.0001
324.54 K, Mass density=0.0247 kg/m3	0.0106 ± 0.0001
324.54 K, Mass density=0.1654 kg/m3	0.0106 ± 0.0001
324.74 K, Mass density=0.2351 kg/m3	0.01058 ± 0.0001
325 K, Mass density=0.0402 kg/m3	0.01062 ± 0.0001
325.15 K, Mass density=0.1973 kg/m3	0.01059 ± 0.0001
325.42 K, Mass density=0.1081 kg/m3	0.01062 ± 0.0001
325.96 K, Mass density=0.0368 kg/m3	0.01065 ± 0.0001
331.18 K, Mass density=0.0186 kg/m3	0.01083 ± 0.0001
331.47 K, Mass density=0.0793 kg/m3	0.01084 ± 0.0001
338.02 K, Mass density=0.1973 kg/m3	0.01103 ± 0.0001
338.38 K, Mass density=0.2351 kg/m3	0.01105 ± 0.0001
338.47 K, Mass density=0.0247 kg/m3	0.01108 ± 0.0001
338.71 K, Mass density=0.0368 kg/m3	0.0111 ± 0.0001
338.79 K, Mass density=0.0793 kg/m3	0.01108 ± 0.0001
338.83 K, Mass density=0.0186 kg/m3	0.01111 ± 0.0001
339.39 K, Mass density=0.0402 kg/m3	0.01112 ± 0.0001
340.17 K, Mass density=0.1081 kg/m3	0.01113 ± 0.0001
341.28 K, Mass density=0.0668 kg/m3	0.01117 ± 0.0001
352.03 K, Mass density=0.1973 kg/m3	0.01153 ± 0.00011
352.05 K, Mass density=0.1654 kg/m3	0.01154 ± 0.00011
352.17 K, Mass density=0.0668 kg/m3	0.01156 ± 0.00011
352.37 K, Mass density=0.2351 kg/m3	0.01154 ± 0.00011
352.75 K, Mass density=0.0186 kg/m3	0.0116 ± 0.00011
352.77 K, Mass density=0.0402 kg/m3	0.0116 ± 0.00011
352.79 K, Mass density=0.0793 kg/m3	0.01159 ± 0.00011
352.91 K, Mass density=0.0247 kg/m3	0.0116 ± 0.00011
353.16 K, Mass density=0.1081 kg/m3	0.0116 ± 0.00011
353.6 K, Mass density=0.0368 kg/m3	0.01163 ± 0.00011
365.86 K, Mass density=0.2351 kg/m3	0.01203 ± 0.00011
366.29 K, Mass density=0.1973 kg/m3	0.01205 ± 0.00011
366.37 K, Mass density=0.0247 kg/m3	0.01209 ± 0.00011
366.48 K, Mass density=0.1654 kg/m3	0.01207 ± 0.00011
366.77 K, Mass density=0.1081 kg/m3	0.01209 ± 0.00011
366.96 K, Mass density=0.0793 kg/m3	0.01211 ± 0.00011
367.03 K, Mass density=0.0402 kg/m3	0.01212 ± 0.00011
367.1 K, Mass density=0.0668 kg/m3	0.0121 ± 0.00011
367.84 K, Mass density=0.0186 kg/m3	0.01216 ± 0.00011
368.22 K, Mass density=0.0368 kg/m3	0.01216 ± 0.00011
380.42 K, Mass density=0.0247 kg/m3	0.0126 ± 0.00011
380.43 K, Mass density=0.1973 kg/m3	0.01257 ± 0.00011
380.59 K, Mass density=0.0668 kg/m3	0.01259 ± 0.00011
380.6 K, Mass density=0.1654 kg/m3	0.01258 ± 0.00011
380.8 K, Mass density=0.0186 kg/m3	0.01263 ± 0.00011
381.09 K, Mass density=0.0402 kg/m3	0.01263 ± 0.00011
381.09 K, Mass density=0.0793 kg/m3	0.01263 ± 0.00011
381.33 K, Mass density=0.1081 kg/m3	0.01263 ± 0.00011
381.7 K, Mass density=0.2351 kg/m3	0.01262 ± 0.00011
382.14 K, Mass density=0.0368 kg/m3	0.01268 ± 0.00011
393.95 K, Mass density=0.1654 kg/m3	0.01309 ± 0.00012
394.29 K, Mass density=0.0668 kg/m3	0.0131 ± 0.00012
394.39 K, Mass density=0.0186 kg/m3	0.01314 ± 0.00012
394.43 K, Mass density=0.1973 kg/m3	0.0131 ± 0.00012
394.48 K, Mass density=0.2351 kg/m3	0.01311 ± 0.00012
394.72 K, Mass density=0.0247 kg/m3	0.01313 ± 0.00012
395 K, Mass density=0.1081 kg/m3	0.01314 ± 0.00012
395.38 K, Mass density=0.0402 kg/m3	0.01316 ± 0.00012
395.87 K, Mass density=0.0793 kg/m3	0.01319 ± 0.00012
396.61 K, Mass density=0.0368 kg/m3	0.01322 ± 0.00012
408.3 K, Mass density=0.1654 kg/m3	0.01365 ± 0.00012
408.32 K, Mass density=0.0668 kg/m3	0.01364 ± 0.00012
408.34 K, Mass density=0.2351 kg/m3	0.01365 ± 0.00012
408.76 K, Mass density=0.1973 kg/m3	0.01366 ± 0.00012
408.87 K, Mass density=0.0186 kg/m3	0.01369 ± 0.00012
409.37 K, Mass density=0.1081 kg/m3	0.01369 ± 0.00012
409.39 K, Mass density=0.0793 kg/m3	0.0137 ± 0.00012
409.46 K, Mass density=0.0402 kg/m3	0.01369 ± 0.00012
409.76 K, Mass density=0.0247 kg/m3	0.01371 ± 0.00012
411.18 K, Mass density=0.0368 kg/m3	0.01379 ± 0.00012
422.56 K, Mass density=0.2351 kg/m3	0.01421 ± 0.00012
422.69 K, Mass density=0.1654 kg/m3	0.01422 ± 0.00012
422.72 K, Mass density=0.0668 kg/m3	0.0142 ± 0.00012
422.75 K, Mass density=0.0247 kg/m3	0.01422 ± 0.00012
422.94 K, Mass density=0.1973 kg/m3	0.01422 ± 0.00012
423.26 K, Mass density=0.0186 kg/m3	0.01424 ± 0.00012
423.44 K, Mass density=0.0793 kg/m3	0.01425 ± 0.00012
423.62 K, Mass density=0.1081 kg/m3	0.01425 ± 0.00012
423.7 K, Mass density=0.0402 kg/m3	0.01426 ± 0.00012
423.8 K, Mass density=0.0368 kg/m3	0.01428 ± 0.00012
437.27 K, Mass density=0.2351 kg/m3	0.01482 ± 0.00013
437.71 K, Mass density=0.1654 kg/m3	0.01483 ± 0.00013
437.84 K, Mass density=0.1973 kg/m3	0.01484 ± 0.00013
438.04 K, Mass density=0.0668 kg/m3	0.01481 ± 0.00013
438.05 K, Mass density=0.1081 kg/m3	0.01483 ± 0.00013
438.48 K, Mass density=0.0368 kg/m3	0.01487 ± 0.00013
438.71 K, Mass density=0.0793 kg/m3	0.01486 ± 0.00013
438.77 K, Mass density=0.0186 kg/m3	0.01485 ± 0.00013
438.99 K, Mass density=0.0402 kg/m3	0.01486 ± 0.00013
440.41 K, Mass density=0.0247 kg/m3	0.01492 ± 0.00013

From the NIST ThermoML archive (doi:10.1021/je050288d)
